Four compounds from US10568317B2 (Biomatrica, Inc., priority 2015, dated 2020) can be followed below.

Format in all cases: cell-based
For series [1], the system named is erythrocytes in whole blood. Kind of series: Erythrocyte sedimentation in whole blood: sucralose concentration and other saccharides, visual analysis (Example 2). To be noted: K2EDTA blood, 1 hour and 6 hours. The procedure:
Fresh blood was collected into BD K2EDTA VACUTAINER® tubes and pooled. 952 μL of fresh blood was aliquot into 2 mL centrifuge tubes, each containing 48 μL of sucralose at the indicated concentration in FIG. 2, or the indicated saccharide (ML848, a di-chlorinated monosaccharide, or DG783, a mono-fluorinated monosaccharide) at the indicated concentration. Sucralose solutions of different concentrations were prepared by dilution of 0.5 M sucralose to 10 mM in water. […] 48 μL of PBS and 0.9% saline served as controls. Final concentrations of sucralose or the indicated saccharide shown in FIG. 2 were as follows (from left to right): 24 mM sucralose, 12 mM sucralose, 6.24 mM sucralose, 2.88 mM sucralose, 1.44 mM sucralose, 0.96 mM sucralose, 0.48 mM sucralose, 24 mM sucrose, 2.4 mM sucrose, 24 mM trehalose, 24 mM melezitose, 4.8 mM ML848, and 24 mM DG783.
(§1) The filled centrifuge tubes were gently inverted five times to mix and stored upright on the benchtop at approximately 25° C. Tubes were photographed at 1 hour (FIG. 2, upper panel) and 6 hours (FIG. 2, center panel) against a white background for visual analysis of sedimentation rate. After 7 hours of storage, tubes were centrifuged for 20 min at 3000 rpm to determine the effect of hemolysis on sedimentation rate by visual analysis (FIG. 2, lower panel).

In series [2] the test system is erythrocytes in whole blood. Kind of series: Erythrocyte sedimentation in whole blood after addition of sucralose solution, visual analysis (Example 1). To be noted: about 24 mM sucralose (0.5 M solution, blood:solution 20:1), K2EDTA blood, ambient temperature, 6 hours and 24 hours. On the procedure: Fresh blood was collected into BD K2EDTA VACUTAINER® tubes and pooled. Blood and a solution of 0.5 M sucralose were mixed at a ratio of 20:1 by aliquotting 952 μL of fresh blood into 2 mL centrifuge tubes containing 48 μL of formulation, resulting in a concentration of about 24 mM sucralose. 48 μL of PBS and 0.9% saline served as controls. Blood with no formulation (NF) added served as an additional control. The filled centrifuge tubes were gently inverted five times to mix and stored upright on the benchtop at approximately 25° C. Tubes were photographed at 0 hours (FIG. 1A), 6 hours (FIG. 1B), and 24 hours (FIG. 1C) against a white background for visual analysis of sedimentation rate.

The subject of series [3] is erythrocytes in whole blood. The series can be described thus: Hemolysis by centrifugation after 7 hours of storage, visual analysis (Example 2). On the procedure: as §1
Series [4] has as its system erythrocytes in whole blood. The series can be described thus: Erythrocyte sedimentation in whole blood: sucralose compared to polyols and halogenated polyols, visual analysis (Example 5). To be noted: 0.5 M solution, final 24 mM sucralose, K2EDTA blood, 2 hours. The procedure:
Fresh blood was collected into BD K2EDTA VACUTAINER® tubes and pooled. 952 μL of fresh blood was aliquot into 2 mL centrifuge tubes containing 48 μL of a solution of 0.5 M sucralose, the indicated polyol, or the indicated halogenated polyol. Additives at 0.25 M were adjusted to 300 mOsmol with NaCl. PBS and no formulation (NF) added served as controls. The filled centrifuge tubes were gently inverted five times to mix and stored upright on the benchtop at approximately 25° C. Tubes were photographed at 2 hours against a white background for visual analysis of sedimentation rate.

In series [5] the test system is erythrocytes in whole blood. Kind of series: Erythrocyte sedimentation in whole blood after addition of sucralose powder, visual analysis (Example 3). On the procedure:
Fresh blood was collected into BD K2EDTA VACUTAINER® tubes and pooled. 1 mL of fresh blood was aliquotted into 2 mL centrifuge tubes containing sucralose powder. Final concentrations of sucralose ranged from 7.5 mM to 100 mM, corresponding to 3.0 mg to 39.8 mg per mL of blood. The no formulation (NF) control sample received no addition of sucralose. Tubes were inverted at least five times until no visible undissolved material remained at the bottom of the tubes. Tubes were stored upright on the benchtop at approximately 25° C. Tubes were photographed at 1 hour (FIG. 3, upper panel) and 6 hours (FIG. 3, lower panel) against a white background for visual analysis of sedimentation rate.

Series [6] relates to erythrocytes in whole blood. Kind of series: Erythrocyte sedimentation in whole blood collected with different anticoagulants, visual analysis (Example 4). To be noted: final 24 mM sucralose; ACD-B, K3EDTA, NaHep, LiHep, NaF, SPS, K2EDTA tubes; 2 hours and 8 hours. The source says: To screen for collection conditions, fresh blood was collected into a series of BD VACUTAINER® or Greiner Bio-One VACUETTE® low-volume blood collection tubes containing different anticoagulants, including acid citrate dextrose solution B (ACD-B), tri-potassium ethylenediaminetetraacetic acid (K3EDTA), sodium heparin (NaHep), lithium heparin (LiHep), sodium fluoride (NaF), and sodium polyanethol sulfonate (SPS). Collection into tubes containing di-potassium ethylenediaminetetraacetic acid (K2EDTA) served as a control. 952 μL of fresh blood was aliquot into 2 mL centrifuge tubes containing 48 μL of 0.5 M sucralose or PBS. No formulation (NF) added served as an additional control. The filled centrifuge tubes were gently inverted five times to mix and stored upright on the benchtop at approximately 25° C. Tubes were photographed at 2 hours (FIG. 4, upper panel) and 8 hours (FIG. 4, lower panel) against a white background for visual analysis of sedimentation rate. […] By contrast, addition of PBS had no effect on erythrocyte sedimentation rate.

Where [7] appears, read: other saccharides, final: 24 mM and 2.4 mM sucrose, 24 mM trehalose, 24 mM melezitose, 4.8 mM ML848, 24 mM DG783.

Consider `OC[C@H]1O[C@@](CO)(O[C@H]2O[C@H](CO)[C@@H](O)[C@H](O)[C@H]2O)[C@@H](O[C@H]2O[C@H](CO)[C@@H](O)[C@H](O)[C@H]2O)[C@@H]1O` [melezitose], for which the “lower sedimentation rate of erythrocytes” value in series [1] (setting [7]) is listed as “not observed”.
In the case of `OC[C@H]1O[C@H](O[C@]2(CCl)O[C@H](CCl)[C@@H](O)[C@@H]2O)[C@H](O)[C@@H](O)[C@H]1Cl` [sucralose, 1,6-dichloro-1,6-dideoxy-β-D-fructofuranosyl-4-chloro-4-deoxy-α-D-galactopyranoside], the “lower sedimentation rate of erythrocytes” value in series [1] (final sucralose concentrations below 5 mM) is listed as “not observed”. Also, the “sedimentation rate of erythrocytes” value in series [1] (high concentrations of sucralose, ambient temperature) was “lower sedimentation rate”. The “sedimentation rate of the erythrocytes compared to NF, PBS or saline” value in series [2] is given as “lower sedimentation rate”. Besides, the “hemolysis of erythrocytes (coloration of plasma layer after centrifugation)” value in series [3] (high concentration of sucralose, 7 hours of storage, centrifuged 20 min at 3000 rpm) is reported as “not due to excessive hemolysis”. In addition, the “final sucralose concentrations at which significant hemolysis was not seen” value in series [3] (whole blood) is recorded as not above 40 mM. Also, the erythrocyte sedimentation rate result in series [4] is given as “reduced erythrocyte sedimentation rate”. The “state of whole blood samples at lower concentrations of sucralose” value in series [5] (sucralose powder below 24 mM, ambient temperatures, 6 hours) was “separation of the erythrocyte and plasma layers”. Also, in series [5] (sucralose powder, ambient temperatures, 6 hours), the “sucralose concentration at which homogeneity of whole blood samples was observed” value is not below 24 mM. The “rate of erythrocyte sedimentation versus sucralose concentration” value in series [5] (sucralose powder, final 7.5 mM to 100 mM, K2EDTA blood, 1 hour and 6 hours) was “inversely proportional to the concentration of sucralose”. The “erythrocyte sedimentation rate for each anticoagulant” value in series [6] is on record as “reduction of erythrocyte sedimentation rate”.
Regarding `OC[C@H]1O[C@@](CO)(O[C@H]2O[C@H](CO)[C@@H](O)[C@H](O)[C@H]2O)[C@@H](O)[C@@H]1O` [sucrose], the “lower sedimentation rate of erythrocytes” value in series [1] (setting [7]) was “not observed”.
Consider `OC[C@H]1O[C@H](O[C@H]2O[C@H](CO)[C@@H](O)[C@H](O)[C@H]2O)[C@H](O)[C@@H](O)[C@@H]1O` [trehalose], for which, in series [1] (setting [7]), the “lower sedimentation rate of erythrocytes” value was “not observed”.
